# In ChEMBL document CHEMBL1201862, “PubChem BioAssay data set” (2004):
# Active and inactive are the calls of the source.
# How the values were obtained:
# Cytochrome P450 1A2 = biological target: T1, Cytochrome P450 1A2 (Homo sapiens, UniProt P05177);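 note: PubChem cytochrome P450 panel assay, CYP1A2 panel member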
# T1 sequence (P05177 whole entry): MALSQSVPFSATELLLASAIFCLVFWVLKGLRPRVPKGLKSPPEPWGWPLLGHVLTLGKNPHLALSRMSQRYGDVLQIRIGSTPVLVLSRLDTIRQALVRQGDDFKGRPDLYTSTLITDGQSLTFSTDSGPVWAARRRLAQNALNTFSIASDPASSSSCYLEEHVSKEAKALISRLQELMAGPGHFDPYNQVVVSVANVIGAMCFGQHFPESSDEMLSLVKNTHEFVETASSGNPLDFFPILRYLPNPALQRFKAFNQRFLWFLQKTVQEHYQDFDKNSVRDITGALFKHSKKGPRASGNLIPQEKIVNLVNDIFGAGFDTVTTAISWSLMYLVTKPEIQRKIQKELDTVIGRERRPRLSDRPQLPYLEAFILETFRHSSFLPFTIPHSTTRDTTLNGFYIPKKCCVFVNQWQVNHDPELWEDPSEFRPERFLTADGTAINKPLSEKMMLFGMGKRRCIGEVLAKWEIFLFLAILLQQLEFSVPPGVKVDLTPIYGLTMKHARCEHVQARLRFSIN
# Cytochrome P450 2D6 = Cytochrome P450 2D6 (Homo sapiens, UniProt P10635);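 note: CYP2D6 member of a cytochrome P450 panel assay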
# Cytochrome P450 2D6, sequence (P10635 whole entry): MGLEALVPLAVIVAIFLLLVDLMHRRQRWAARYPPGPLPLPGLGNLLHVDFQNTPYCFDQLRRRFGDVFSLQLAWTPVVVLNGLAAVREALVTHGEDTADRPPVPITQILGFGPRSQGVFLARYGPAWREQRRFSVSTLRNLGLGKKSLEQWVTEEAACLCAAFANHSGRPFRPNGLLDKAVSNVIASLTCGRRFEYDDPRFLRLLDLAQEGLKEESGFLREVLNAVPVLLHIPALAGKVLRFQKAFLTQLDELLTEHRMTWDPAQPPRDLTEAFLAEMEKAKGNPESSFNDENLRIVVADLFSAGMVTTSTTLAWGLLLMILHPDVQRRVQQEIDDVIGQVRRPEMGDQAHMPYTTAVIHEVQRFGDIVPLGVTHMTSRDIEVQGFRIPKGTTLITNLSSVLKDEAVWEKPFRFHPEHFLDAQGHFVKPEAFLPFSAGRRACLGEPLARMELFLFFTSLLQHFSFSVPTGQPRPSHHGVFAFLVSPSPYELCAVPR
# Cytochrome P450 3A4 = Cytochrome P450 3A4 (Homo sapiens, UniProt P08684);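 note: CYP3A4 tested as one member of a cytochrome P450 panel screen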
# Cytochrome P450 2C19 = Cytochrome P450 2C19 (Homo sapiens, UniProt P33261); experiment: Cytochrome panel assay with activity outcomes. Panel member name: p450-cyp2c19 Compounds with AC50 equal or less than 10 uM are considered active; assay type: functional; details: read-out: AC50
# Cytochrome P450 2C19, sequence (P33261 whole entry): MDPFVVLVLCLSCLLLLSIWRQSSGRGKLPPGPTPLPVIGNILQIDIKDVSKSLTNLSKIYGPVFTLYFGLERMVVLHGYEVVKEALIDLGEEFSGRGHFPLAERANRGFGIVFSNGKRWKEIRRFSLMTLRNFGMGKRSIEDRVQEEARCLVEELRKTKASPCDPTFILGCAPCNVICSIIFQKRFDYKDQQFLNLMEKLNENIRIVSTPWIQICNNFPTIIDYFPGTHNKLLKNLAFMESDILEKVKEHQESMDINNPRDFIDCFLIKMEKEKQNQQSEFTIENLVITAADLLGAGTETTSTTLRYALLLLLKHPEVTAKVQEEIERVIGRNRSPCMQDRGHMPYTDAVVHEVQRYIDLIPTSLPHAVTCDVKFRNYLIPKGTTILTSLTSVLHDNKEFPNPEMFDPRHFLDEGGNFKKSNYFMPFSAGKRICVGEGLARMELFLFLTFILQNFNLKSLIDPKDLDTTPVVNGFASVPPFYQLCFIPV
# [1] = biological target: T2, Polyadenylate-binding protein 1 (Homo sapiens, UniProt P11940); experiment: PABP1 MLLE–PAM2 binding inhibitor potency, dose response, biochemical, fluorescence polarization, FITC-PAM2 peptide (AID 602259); assay type: functional; details: read-out: IC50_Mean
# T2 sequence (P11940 whole entry): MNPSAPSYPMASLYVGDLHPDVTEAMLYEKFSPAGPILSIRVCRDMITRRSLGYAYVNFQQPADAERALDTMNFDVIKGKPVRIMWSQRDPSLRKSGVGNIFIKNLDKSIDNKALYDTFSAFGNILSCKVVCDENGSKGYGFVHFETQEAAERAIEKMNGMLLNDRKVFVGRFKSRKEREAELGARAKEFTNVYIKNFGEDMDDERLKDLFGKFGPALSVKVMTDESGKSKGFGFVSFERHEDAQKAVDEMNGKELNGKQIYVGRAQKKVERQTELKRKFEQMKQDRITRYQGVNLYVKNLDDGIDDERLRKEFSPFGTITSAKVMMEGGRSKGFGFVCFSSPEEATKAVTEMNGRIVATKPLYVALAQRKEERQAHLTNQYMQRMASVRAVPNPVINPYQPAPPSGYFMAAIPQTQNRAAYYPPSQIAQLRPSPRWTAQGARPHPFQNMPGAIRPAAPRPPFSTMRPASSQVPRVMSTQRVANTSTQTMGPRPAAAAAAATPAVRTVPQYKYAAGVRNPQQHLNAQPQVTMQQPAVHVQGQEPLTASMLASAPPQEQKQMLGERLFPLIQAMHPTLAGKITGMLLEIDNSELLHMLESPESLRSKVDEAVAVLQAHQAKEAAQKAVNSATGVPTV
# [2] = biological target: T2, Polyadenylate-binding protein 1; experiment: PABP1 MLLE–PAM2 interaction inhibitors, dose response, miRNA deadenylation inhibitor project, biochemical, fluorescence polarization, Cy5-PAM2 peptide, secondary (AID 602260); assay type: functional; details: read-out: IC50_Mean
# Fatty acid synthase [3] = biological target: T3, Fatty acid synthase (Homo sapiens, UniProt P49327); experiment: FAS thioesterase domain inhibitors, dose response, biochemical, endpoint fluorescence intensity, uHTS hits (AID 624327); assay type: functional;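 note: fluorescence from hydrolysis of an O-methyl fluorescein acyl ester substrate by the enzyme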
# T3 sequence (P49327 whole entry, the tested form may be a part): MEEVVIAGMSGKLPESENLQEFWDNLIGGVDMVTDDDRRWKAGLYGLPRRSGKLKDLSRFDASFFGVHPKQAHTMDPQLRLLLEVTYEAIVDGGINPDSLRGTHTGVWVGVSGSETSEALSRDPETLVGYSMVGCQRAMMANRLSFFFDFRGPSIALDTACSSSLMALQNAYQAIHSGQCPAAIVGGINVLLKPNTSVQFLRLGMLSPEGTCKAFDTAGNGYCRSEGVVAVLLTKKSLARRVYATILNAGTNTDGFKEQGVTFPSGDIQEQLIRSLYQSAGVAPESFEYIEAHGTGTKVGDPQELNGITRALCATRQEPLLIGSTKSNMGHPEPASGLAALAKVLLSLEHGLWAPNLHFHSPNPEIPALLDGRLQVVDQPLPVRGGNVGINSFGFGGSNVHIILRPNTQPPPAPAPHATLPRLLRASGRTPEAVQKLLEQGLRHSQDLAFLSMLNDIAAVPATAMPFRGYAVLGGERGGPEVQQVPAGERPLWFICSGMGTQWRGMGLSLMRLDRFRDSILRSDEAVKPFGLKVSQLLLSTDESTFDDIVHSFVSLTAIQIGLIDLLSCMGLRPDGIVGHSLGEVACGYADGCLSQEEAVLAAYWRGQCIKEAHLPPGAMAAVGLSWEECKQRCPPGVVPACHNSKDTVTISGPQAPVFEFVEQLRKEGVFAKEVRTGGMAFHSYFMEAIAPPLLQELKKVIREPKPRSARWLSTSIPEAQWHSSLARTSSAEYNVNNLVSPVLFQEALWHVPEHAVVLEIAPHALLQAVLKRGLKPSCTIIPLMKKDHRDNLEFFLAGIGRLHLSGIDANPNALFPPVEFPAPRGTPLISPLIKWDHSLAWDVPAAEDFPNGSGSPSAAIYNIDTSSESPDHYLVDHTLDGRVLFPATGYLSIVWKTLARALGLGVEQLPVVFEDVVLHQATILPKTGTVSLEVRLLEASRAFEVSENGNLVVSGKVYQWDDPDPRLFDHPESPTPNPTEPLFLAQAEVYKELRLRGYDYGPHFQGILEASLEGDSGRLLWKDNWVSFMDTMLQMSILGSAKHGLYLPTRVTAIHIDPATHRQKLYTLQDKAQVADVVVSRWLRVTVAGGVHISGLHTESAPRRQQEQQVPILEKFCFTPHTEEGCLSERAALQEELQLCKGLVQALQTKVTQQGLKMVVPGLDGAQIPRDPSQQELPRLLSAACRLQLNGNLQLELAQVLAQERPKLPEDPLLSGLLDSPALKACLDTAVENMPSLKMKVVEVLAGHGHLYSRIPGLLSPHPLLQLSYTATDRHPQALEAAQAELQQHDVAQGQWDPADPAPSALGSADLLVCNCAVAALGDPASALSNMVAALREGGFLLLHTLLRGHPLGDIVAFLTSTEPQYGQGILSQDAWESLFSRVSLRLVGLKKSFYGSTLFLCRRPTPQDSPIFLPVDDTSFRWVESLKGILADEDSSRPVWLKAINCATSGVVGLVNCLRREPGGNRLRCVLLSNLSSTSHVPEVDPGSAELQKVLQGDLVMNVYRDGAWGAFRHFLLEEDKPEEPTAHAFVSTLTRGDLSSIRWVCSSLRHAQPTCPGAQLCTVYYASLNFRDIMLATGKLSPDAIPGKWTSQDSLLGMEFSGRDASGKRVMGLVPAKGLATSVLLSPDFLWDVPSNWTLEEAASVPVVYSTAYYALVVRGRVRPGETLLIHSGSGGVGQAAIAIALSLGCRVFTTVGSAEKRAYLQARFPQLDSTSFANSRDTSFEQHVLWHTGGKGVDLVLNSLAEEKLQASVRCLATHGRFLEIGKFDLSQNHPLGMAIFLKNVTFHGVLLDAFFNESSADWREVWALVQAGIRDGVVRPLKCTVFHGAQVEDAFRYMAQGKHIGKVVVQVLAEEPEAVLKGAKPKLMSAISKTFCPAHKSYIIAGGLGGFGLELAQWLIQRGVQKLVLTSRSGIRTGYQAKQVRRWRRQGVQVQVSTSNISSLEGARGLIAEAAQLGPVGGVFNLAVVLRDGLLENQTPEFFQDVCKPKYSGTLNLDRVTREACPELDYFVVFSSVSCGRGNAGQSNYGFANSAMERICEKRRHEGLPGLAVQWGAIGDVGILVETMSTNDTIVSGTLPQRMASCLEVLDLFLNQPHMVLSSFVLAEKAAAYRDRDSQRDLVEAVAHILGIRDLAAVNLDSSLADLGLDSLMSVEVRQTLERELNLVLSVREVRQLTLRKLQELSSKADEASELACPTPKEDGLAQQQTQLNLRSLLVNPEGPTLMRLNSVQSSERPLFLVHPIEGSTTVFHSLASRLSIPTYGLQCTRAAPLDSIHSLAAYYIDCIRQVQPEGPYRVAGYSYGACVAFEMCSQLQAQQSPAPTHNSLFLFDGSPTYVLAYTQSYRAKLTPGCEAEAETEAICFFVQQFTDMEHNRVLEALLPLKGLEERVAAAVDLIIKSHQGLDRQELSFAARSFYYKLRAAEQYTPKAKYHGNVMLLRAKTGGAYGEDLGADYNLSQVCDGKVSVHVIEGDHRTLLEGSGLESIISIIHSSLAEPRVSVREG
# Fatty acid synthase [4] = biological target: T3, Fatty acid synthase; experiment: FAS thioesterase domain inhibitors, dose response, biochemical, kinetic fluorescence intensity (AID 624326); assay type: functional;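 note: rate of fluorescence rise from hydrolysis of a fluorogenic O-methyl fluorescein ester substrate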
# [5] = growth suppression of beta-catenin-knockout colon cells, dose response, cell-based, HCT116, human colon tumor (AID 1045); assay type: functional;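 note: HCT116 colon tumor cells with beta catenin knocked out; cells exposed to compound for 60 hours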
# Cytochrome P450 2C9 = Cytochrome P450 2C9 (Homo sapiens, UniProt P11712)
# Cytochrome P450 2C9, sequence (P11712 whole entry): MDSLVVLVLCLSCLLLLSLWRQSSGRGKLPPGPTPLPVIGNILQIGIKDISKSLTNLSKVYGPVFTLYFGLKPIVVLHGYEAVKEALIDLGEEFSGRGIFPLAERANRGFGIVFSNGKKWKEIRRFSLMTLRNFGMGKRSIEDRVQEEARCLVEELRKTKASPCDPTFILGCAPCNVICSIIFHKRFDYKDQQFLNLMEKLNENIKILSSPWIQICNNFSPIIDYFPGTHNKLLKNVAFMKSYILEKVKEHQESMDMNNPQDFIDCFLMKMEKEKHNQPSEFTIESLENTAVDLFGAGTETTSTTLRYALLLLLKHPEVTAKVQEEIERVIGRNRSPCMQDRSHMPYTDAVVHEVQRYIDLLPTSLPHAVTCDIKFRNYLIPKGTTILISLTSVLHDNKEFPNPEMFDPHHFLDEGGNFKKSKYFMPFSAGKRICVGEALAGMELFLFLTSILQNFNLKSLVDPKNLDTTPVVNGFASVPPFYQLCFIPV
# [6] = growth suppression of PTEN-null colon cells, dose response, cell-based, HCT116 PTEN knockout (AID 1047); assay type: functional;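 note: HCT116 colon tumor cells with PTEN knocked out; cells exposed to compound for 60 hours before readout; potency for loss of cell viability measured by luminescence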
# [7] = biological target: T4, Corticotropin-releasing factor receptor 2/Corticotropin-releasing factor-binding protein (Homo sapiens, UniProt P24387+Q13324); experiment: activators of CRF receptor 2 with binding protein – uHTS hits, confirmation (AID 602473); assay type: functional; details: read-out: EC50_Mean
# T4 sequence (Q13324 whole entry): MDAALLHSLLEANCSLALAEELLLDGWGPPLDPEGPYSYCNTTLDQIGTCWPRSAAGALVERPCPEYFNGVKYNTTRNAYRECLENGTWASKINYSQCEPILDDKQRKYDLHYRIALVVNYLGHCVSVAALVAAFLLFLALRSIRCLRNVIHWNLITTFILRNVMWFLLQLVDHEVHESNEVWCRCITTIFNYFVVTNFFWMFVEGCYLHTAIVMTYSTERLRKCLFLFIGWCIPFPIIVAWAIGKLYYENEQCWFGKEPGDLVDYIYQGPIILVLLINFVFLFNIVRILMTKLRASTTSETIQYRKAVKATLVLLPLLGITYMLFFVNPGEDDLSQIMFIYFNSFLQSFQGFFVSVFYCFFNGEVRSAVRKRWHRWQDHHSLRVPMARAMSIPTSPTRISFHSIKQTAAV
# T4 sequence (P24387 whole entry): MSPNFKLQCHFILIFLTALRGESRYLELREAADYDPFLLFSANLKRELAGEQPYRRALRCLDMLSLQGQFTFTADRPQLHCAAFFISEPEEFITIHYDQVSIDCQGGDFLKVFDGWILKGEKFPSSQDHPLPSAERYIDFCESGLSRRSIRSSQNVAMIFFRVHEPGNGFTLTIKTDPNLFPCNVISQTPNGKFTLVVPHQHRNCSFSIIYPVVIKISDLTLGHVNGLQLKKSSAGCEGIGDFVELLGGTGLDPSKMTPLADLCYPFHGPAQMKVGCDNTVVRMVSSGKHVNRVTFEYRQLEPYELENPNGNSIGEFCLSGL
# [8] = biological target: T5, Heat shock factor protein 1 (Mus musculus, UniProt P38532); experiment: HSF1 potentiators in luciferase reporter cells, confirmation, cell-based, NIH3T3, luminescence, dose retest (AID 435004); assay type: functional;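 note: stress induced by proteasome inhibitor MG132 added 30 min after compound; luciferase reporter driven by HSF1 response element in NIH3T3 cells; actives raise luminescence as potentiators of the MG132 stress response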
# T5 sequence (P38532 whole entry): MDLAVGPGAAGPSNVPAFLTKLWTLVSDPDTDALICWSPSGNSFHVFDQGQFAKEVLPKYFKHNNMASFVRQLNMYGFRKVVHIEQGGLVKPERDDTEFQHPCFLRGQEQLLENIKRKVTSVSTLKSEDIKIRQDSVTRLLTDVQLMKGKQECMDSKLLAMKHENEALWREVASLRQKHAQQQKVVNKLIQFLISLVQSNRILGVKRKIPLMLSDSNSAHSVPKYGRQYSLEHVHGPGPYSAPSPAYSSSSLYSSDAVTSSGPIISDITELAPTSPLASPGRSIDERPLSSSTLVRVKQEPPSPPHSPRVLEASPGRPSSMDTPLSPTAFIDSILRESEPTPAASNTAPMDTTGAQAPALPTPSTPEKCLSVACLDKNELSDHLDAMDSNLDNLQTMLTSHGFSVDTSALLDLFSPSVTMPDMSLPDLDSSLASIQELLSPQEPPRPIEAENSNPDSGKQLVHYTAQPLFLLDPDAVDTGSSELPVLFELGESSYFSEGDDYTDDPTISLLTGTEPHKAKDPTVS
# [9] = biological target: T6, Calpain-2 catalytic subunit (Sus scrofa, UniProt P43367); experiment: pig calpain II inhibitor potency, dose response, biochemical, fluorogenic peptide substrate (AID 1420); assay type: functional
# T6 sequence (P43367 whole entry): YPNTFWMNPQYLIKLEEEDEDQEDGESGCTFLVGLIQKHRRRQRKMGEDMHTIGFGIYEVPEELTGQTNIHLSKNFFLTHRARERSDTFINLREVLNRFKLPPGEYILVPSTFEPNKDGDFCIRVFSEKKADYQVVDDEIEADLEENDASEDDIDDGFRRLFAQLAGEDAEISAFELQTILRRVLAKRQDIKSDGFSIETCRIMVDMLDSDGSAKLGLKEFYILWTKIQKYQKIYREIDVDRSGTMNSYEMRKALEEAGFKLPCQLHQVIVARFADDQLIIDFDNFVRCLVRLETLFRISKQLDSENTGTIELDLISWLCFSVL
# Vero = experiment: cells; assay type: functional; details: Chlorocebus sabaeus
compound,measurement,setting,value
CCOC(=O)/C(C#N)=C1/SC(CC)C(=O)N1c1ccc(Br)cc1 (configuration not stated),AC50,Cytochrome P450 1A2,31.6 µM (inconclusive)
same,AC50,Cytochrome P450 2D6,11.2 µM (inconclusive)
same,AC50,Cytochrome P450 3A4,28.2 µM (inconclusive)
CCCN1C2=NCCCN2c2ccccc21,AC50,Cytochrome P450 3A4,35.5 µM (inconclusive)
same,AC50,Cytochrome P450 2C19,20 µM (inconclusive)
O=C(CSc1ncn(-c2ccccc2)n1)Nc1ccc2c(c1)OCCO2,IC50,[1],> 66 µM (inactive)
same,IC50,[2],> 66 µM (inactive)
COC(=O)c1c(NC(=O)c2ccc(C)o2)sc2c1CCCCC2,IC50,[1],> 66 µM (inactive)
same,IC50,[2],> 66 µM (inactive)
O=C(CSc1ncnc2c1nnn2Cc1ccccc1)NC1CCCCC1,IC50,Fatty acid synthase [3],24.3 µM (inactive)
same,IC50,Fatty acid synthase [4],23.6 µM (inactive)
Cc1ccc(C)c(S(=O)(=O)N2CCN(C(=O)Cc3ccc(S(=O)(=O)N4CCOCC4)s3)CC2)c1,IC50,Fatty acid synthase [3],6.49 µM (active)
same,IC50,Fatty acid synthase [4],7.72 µM (active)
CC(=O)c1cccc(-c2ccnc3c2CC(C(=O)Nc2ccc(C(C)C)cc2)O3)c1 (configuration not stated),IC50,Fatty acid synthase [3],10.8 µM (active)
same,IC50,Fatty acid synthase [4],6.77 µM (active)
Cc1cnn(-c2cc(N/N=C/c3ccccc3F)ncn2)c1,EC50,[5],21 µM (active)
same,AC50,Cytochrome P450 2C9,1.26 µM (inconclusive)
same,EC50,[6],12.7 µM (active)
CO/N=C1/c2cc(OC)ccc2O[C@@H](c2cccc(OC)c2)[C@H]1O,AC50,Cytochrome P450 2D6,3.16 µM (inconclusive)
same,AC50,Cytochrome P450 3A4,6.31 µM (inconclusive)
same,AC50,Cytochrome P450 2C19,3.98 µM (inconclusive)
COc1ccc(-c2nn(-c3ccccc3)cc2/C=C/C(=O)O)cc1[N+](=O)[O-],IC50,Fatty acid synthase [3],12.1 µM (active)
same,IC50,Fatty acid synthase [4],13.6 µM (active)
N=c1n(-c2ccccc2)c(O)cc(=O)n1-c1ccccc1,AC50,Cytochrome P450 2D6,22.4 µM (inconclusive)
same,AC50,Cytochrome P450 3A4,25.1 µM (inconclusive)
Cc1ccccc1NC(=O)OCc1cn(-c2ccc(Cl)cc2)nn1,AC50,Cytochrome P450 2D6,0.708 µM (inconclusive)
same,AC50,Cytochrome P450 3A4,0.794 µM (inconclusive)
same,AC50,Cytochrome P450 2C19,8.91 µM (inconclusive)
N#C/C(=C\c1ccccc1[N+](=O)[O-])C(=O)NC1CCCCC1,IC50,[1],> 66 µM (inactive)
same,IC50,[2],> 66 µM (inactive)
same,EC50,[7],> 53 µM (inactive)
Fc1cc(NCc2ccccc2)nc(NCc2ccccc2)n1,EC50,[8],91.1 µM (active)
O=C(COC(=O)C1CCCCC1)Nc1cc([N+](=O)[O-])ccc1F,IC50,Fatty acid synthase [3],7.45 µM (active)
same,IC50,Fatty acid synthase [4],8.3 µM (active)
same,IC50,[9],> 50 µM (not active)
COc1ccc(Nc2ccc([N+](=O)[O-])cn2)cn1,IC50,[1],59.6 µM (inactive)
same,IC50,[2],> 66 µM (inactive)
CCOC(=O)c1cc2c(=O)n3cccc(C)c3nc2n(C)c1=N,EC50,[5],4.97 µM (active)
same,EC50,[6],6.72 µM (active)
O=C(CSc1nccc(=O)[nH]1)N1CCCc2ccccc21,IC50,[1],> 66 µM (inactive)
same,IC50,[2],> 66 µM (inactive)
COc1ccc(CNCCc2ccccc2)cc1OCC(N)=O,AC50,Cytochrome P450 3A4,17.8 µM (inconclusive)
same,AC50,Cytochrome P450 2C9,0.0282 µM (inconclusive)
same,AC50,Cytochrome P450 2C19,6.31 µM (inconclusive)
CC(C)(C)N(Cc1ccccc1)C(=O)COC(=O)c1cccc([N+](=O)[O-])c1,IC50,Fatty acid synthase [3],4.39 µM (active)
same,IC50,Fatty acid synthase [4],2.97 µM (active)
Cc1ccnc(N2CCCC(C(=O)Nc3ccc(C)c(C)c3)C2)n1 (configuration not stated),EC50,[8],> 260 µM (inactive)
Cc1cc(S(=O)(=O)NCCCN2CCOCC2)ccc1F,AC50,Cytochrome P450 3A4,28.2 µM (inconclusive)
same,AC50,Cytochrome P450 2C19,28.2 µM (inconclusive)
COc1ccc(C(=O)NC(=S)Nc2nc(C)c(C(=O)N(C)C)s2)cc1,IC50,[1],> 66 µM (inactive)
same,IC50,[2],> 66 µM (inactive)
CC1=Nc2cc(C(=O)O)ccc2Sc2c(C)ccc(C)c21,EC50,[8],> 260 µM (inactive)
COc1ccc(OC)c(/C=C/C(=O)c2ccc3c(c2)OCCO3)c1,CC50,Vero,18.8 µM (active)
CCn1cc(C(=O)NCc2ccc(Cl)cc2)c(=O)c2cc(S(=O)(=O)N(C)C)ccc21,IC50,Fatty acid synthase [3],9.03 µM (active)
same,IC50,Fatty acid synthase [4],8.74 µM (active)
COc1ccc(-c2nnn(Cc3nc(N)nc(N4CCOCC4)n3)n2)cc1OC,AC50,Cytochrome P450 2D6,12.6 µM (inconclusive)
same,AC50,Cytochrome P450 3A4,28.2 µM (inconclusive)
same,AC50,Cytochrome P450 2C9,25.1 µM (inconclusive)
same,AC50,Cytochrome P450 2C19,35.5 µM (inconclusive)
CCC(C)c1ccccc1NC(=O)c1cc(C)no1 (configuration not stated),EC50,[8],> 260 µM (inactive)
NNC(=O)C1C(O)CCC2CN3CCc4c([nH]c5ccccc45)C3CC21 (configuration not stated),CC50,Vero,> 25 µM (active)
CC1C(=O)N(Cc2cn(Cc3ccco3)nn2)CCS(=O)(=O)N1Cc1ccc(-c2ccccc2)cc1 (configuration not stated),CC50,Vero,> 25 µM (active)
